Where no end group is shown, it is not given here.
Biological target: T1, PCV2 Cap protein (Porcine circovirus 2, UniProt O56129)
T1 construct: made in house; host or cells: E. coli BL21 (pET28a-Cap)
Test: biochemical
Format: binding, porcine circovirus type II
Conditions: for kon: pH 7.4, read-out: ka
Procedure: The equilibrium binding constant (KD) of peptides was determined using an Open SPR instrument (Nicoya, Canada). First, purified Cap protein was covalently immobilized on a carboxyl Au colloidal nanoparticles chip. […] Then, all peptides were respectively dissolved in PBS at predetermined concentrations and injected to detect the resonance signal changes. In each cycle, 300 µL of peptide solution was injected into the flow cell of the Cap chip for 5 min. Finally, the data were assessed to determine the association constant (ka, 1/Ms), the dissociation constant (kd, 1/s), the equilibrium binding constant (KD, M), and KD = kd/ka via Trace Drawer 1.7 (Nicoya, Canada).
All the steps were performed according to manufacturer’s instructions. First, the activation of carboxyl chip: the chip is activated by the EDC/NHS reagent in the amine coupling kit. […] The last step is to block the chip with blocking buffer. In every step, The 300 μL sample was flowed through the chip for 5 min at a constant flow rate of 20 μL/min.
Dissociation constant Kd represents the ratio of AB (ie, AB) dissociated in unit time to the initial AB before dissociation, which represents the speed of the dissociation reaction.Equilibrium dissociation constant KD =kd/ka, KD unit is M (mol/L)
1:1 binding interaction model represents the binding mode of ligand and target according to 1:1. The1:1 binding interaction model is a differential equation:
dY/dt = (k a * c - k d )* Y

T1 sequence (O56129 whole entry): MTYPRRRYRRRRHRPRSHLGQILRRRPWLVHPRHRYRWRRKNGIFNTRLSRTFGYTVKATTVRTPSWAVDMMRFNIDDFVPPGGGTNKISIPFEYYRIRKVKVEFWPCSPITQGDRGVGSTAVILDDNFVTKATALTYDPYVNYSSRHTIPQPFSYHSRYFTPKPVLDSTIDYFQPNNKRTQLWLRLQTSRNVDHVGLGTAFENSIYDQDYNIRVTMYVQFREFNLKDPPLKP

Substance	Kd [µM]	kon [M⁻¹ s⁻¹]
WQSWEWTG [Peptide L9]	6.71	855
KWWQSWEW [Peptide L13]	9.97	335
WQGMMKEE [Peptide L4]	1.23	1920
RKHKRWK [Peptide L7]	1.06	856
